Patent US20090304692A1, “TRIAZINE COMPOUNDS AS PI3 KINASE AND MTOR INHIBITORS” (Wyeth, priority 2008, published 2009)
pIC50: −log10 of the molar value. Read-outs that look alike come from different tables or passages of the source.

Columns and labels:
[1] = molecular target: PI3K-α (Homo sapiens, UniProt P42336); assay: PI3K-alpha fluorescence polarization assay; conditions: read-out: IC50 PI3Kα
[2] = molecular target: PI3K-γ (Homo sapiens, UniProt P48736); assay: PI3K-gamma fluorescence polarization assay
Chain of PI3K-γ (P48736 whole entry, species assumed): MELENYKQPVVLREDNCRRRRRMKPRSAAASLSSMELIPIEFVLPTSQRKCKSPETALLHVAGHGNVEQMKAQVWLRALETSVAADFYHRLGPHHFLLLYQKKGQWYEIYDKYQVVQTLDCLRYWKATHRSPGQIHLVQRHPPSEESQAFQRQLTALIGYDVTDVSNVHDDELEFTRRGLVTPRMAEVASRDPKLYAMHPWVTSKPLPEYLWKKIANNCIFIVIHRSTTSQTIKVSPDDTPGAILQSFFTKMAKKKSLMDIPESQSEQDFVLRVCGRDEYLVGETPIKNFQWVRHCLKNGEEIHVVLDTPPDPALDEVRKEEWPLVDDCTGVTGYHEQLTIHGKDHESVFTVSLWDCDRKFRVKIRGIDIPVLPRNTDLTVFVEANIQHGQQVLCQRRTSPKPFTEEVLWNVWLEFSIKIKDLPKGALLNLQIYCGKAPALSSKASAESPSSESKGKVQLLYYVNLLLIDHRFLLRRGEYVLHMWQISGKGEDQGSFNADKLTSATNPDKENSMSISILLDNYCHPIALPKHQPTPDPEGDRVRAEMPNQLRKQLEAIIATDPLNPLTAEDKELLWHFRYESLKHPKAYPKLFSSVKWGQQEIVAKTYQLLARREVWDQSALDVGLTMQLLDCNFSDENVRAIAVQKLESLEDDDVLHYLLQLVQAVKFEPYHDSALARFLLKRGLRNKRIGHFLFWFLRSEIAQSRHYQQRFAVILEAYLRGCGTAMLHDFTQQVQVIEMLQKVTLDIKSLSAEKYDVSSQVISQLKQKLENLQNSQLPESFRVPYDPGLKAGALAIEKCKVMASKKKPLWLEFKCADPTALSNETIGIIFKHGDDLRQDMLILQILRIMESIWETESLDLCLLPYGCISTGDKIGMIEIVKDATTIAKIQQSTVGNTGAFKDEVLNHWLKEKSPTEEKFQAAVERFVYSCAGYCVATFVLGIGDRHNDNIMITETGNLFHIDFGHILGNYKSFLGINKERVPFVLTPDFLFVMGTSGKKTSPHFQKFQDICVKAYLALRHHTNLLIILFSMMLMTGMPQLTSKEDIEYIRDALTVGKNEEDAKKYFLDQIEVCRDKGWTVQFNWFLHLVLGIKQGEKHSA

Chain of PI3K-α (P42336 whole entry, species assumed): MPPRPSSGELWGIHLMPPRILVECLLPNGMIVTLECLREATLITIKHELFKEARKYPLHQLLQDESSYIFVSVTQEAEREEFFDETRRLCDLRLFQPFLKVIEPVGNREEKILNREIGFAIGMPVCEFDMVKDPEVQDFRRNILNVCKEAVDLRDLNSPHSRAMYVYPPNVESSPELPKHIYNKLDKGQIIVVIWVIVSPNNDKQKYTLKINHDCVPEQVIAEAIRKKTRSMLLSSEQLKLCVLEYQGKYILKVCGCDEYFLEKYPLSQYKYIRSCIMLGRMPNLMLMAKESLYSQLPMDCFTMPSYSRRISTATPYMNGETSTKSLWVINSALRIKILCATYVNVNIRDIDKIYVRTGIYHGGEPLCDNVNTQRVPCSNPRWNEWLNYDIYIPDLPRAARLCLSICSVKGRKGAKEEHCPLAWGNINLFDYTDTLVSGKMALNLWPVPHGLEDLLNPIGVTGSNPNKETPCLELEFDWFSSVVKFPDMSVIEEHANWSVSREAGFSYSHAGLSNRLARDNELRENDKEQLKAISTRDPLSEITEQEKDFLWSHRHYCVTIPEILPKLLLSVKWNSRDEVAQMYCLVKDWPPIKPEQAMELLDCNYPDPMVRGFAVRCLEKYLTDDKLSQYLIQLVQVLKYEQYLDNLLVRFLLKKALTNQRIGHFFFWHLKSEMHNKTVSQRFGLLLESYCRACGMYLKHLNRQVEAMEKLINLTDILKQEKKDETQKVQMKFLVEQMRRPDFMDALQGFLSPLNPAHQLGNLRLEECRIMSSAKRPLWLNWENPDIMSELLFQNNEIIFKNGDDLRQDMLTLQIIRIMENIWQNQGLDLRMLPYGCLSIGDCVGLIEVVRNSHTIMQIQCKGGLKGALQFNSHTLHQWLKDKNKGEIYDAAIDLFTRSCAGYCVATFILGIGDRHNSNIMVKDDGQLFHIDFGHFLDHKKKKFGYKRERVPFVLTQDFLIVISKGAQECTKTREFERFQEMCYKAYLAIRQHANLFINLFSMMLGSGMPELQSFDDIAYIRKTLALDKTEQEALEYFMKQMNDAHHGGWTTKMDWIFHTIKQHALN
Chain of PI3K-α (P27986 whole entry partner, species assumed): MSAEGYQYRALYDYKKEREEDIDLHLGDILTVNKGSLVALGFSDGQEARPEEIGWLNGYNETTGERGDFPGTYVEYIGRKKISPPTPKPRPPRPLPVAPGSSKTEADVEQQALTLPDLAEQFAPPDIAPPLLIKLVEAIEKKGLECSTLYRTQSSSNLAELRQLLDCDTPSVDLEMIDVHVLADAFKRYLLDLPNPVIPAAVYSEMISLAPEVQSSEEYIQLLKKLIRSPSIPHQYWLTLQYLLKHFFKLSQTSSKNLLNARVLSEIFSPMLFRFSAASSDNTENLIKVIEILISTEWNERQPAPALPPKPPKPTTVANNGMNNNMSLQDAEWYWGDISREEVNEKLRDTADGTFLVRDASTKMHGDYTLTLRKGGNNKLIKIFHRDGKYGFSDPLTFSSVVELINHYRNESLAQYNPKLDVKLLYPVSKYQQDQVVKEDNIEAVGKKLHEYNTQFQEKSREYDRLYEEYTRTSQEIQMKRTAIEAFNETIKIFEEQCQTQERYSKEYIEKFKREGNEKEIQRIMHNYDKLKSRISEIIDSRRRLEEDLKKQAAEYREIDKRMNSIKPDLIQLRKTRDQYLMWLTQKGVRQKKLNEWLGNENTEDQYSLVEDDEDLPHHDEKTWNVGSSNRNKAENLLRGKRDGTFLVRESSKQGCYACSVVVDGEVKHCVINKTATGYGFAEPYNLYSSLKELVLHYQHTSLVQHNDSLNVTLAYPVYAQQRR

Compound	pIC50 ([2]; read-out: IC50 PI3Kγ)	further results
Cc1nc(-c2ccc(NC(=O)Nc3ccc(C(=O)NC4CCN(C)CC4)cc3)cc2)nc(N2CCOCC2)n1 [Example 164, 4-({[4-(4-methyl-6-morpholin-4-yl-1,3,5-triazin-2-yl)phenyl]carbamoyl}amino)-N-(1-methylpiperidin-4-yl)benzamide]	5.86	pIC50 [1]: 6.42
O=C(Nc1ccc(C(=O)N2CCC(N3CCCC3)CC2)cc1)Nc1ccc(-c2nc(N3CCOCC3)nc(N3C[C@@H]4C[C@H]3CO4)n2)cc1 [Example 210, 1-(4-{4-morpholin-4-yl-6-[(1S,4S)-2-oxa-5-azabicyclo[2.2.1]hept-5-yl]-1,3,5-triazin-2-yl}phenyl)-3-{4-[(4-pyrrolidin-1-ylpiperidin-1-yl)carbonyl]phenyl}urea]	7.51	pIC50 [1]: 8.22
O=C(Nc1ccc(CO)cc1)Nc1ccc(-c2nc(N3C4CCC3COC4)nc(N3C4CCC3COC4)n2)cc1 [Example 287, 1-[4-(4,6-di-3-oxa-8-azabicyclo[3.2.1]oct-8-yl-1,3,5-triazin-2-yl)phenyl]-3-[4-(hydroxymethyl)phenyl]urea]	5.48	–
CNCc1ccc(NC(=O)Nc2ccc(-c3nc(N4C5CCC4COC5)nc(N4C5CCC4COC5)n3)cc2)cc1 [Example 288, 1-[4-(4,6-di-3-oxa-8-azabicyclo[3.2.1]oct-8-yl-1,3,5-triazin-2-yl)phenyl]-3-{4-[(methylamino)methyl]phenyl}urea]	5.56	–
CN(C)CCOc1ccc(NC(=O)Nc2ccc(-c3nc(N4C5CCC4COC5)nc(N4C5CCC4COC5)n3)cc2)cc1 [Example 289, 1-{4-[2-(dimethylamino)ethoxy]phenyl}-3-[4-(4,6-di-3-oxa-8-azabicyclo[3.2.1]oct-8-yl-1,3,5-triazin-2-yl)phenyl]urea]	5.41	–
CN1CCN(c2ccc(NC(=O)Nc3ccc(-c4nc(N5C[C@@H]6C[C@H]5CO6)nc(N5C[C@@H]6C[C@H]5CO6)n4)cc3)cc2)CC1 [Example 312, 1-{4-[4,6-di-(1S,4S)-2-oxa-5-azabicyclo[2.2.1]hept-5-yl-1,3,5-triazin-2-yl]phenyl}-3-[4-(4-methylpiperazin-1-yl)phenyl]urea]	5.00	pIC50 [1]: 5.46
O=C(Nc1ccc(OCCO)cc1)Nc1ccc(-c2nc(N3C4CCC3COC4)nc(N3C4CCC3COC4)n2)cc1 [Example 372, 1-(4-(4,6-di(3-oxa-8-azabicyclo[3.2.1]octan-8-yl)-1,3,5-triazin-2-yl)phenyl)-3-(4-(2-hydroxyethoxy)phenyl)urea]	5.14	–
CC(C)Nc1nc(-c2ccc(NC(=O)Nc3ccc(N4CCN(C)CC4)cc3)cc2)nc(N2C3CCC2COC3)n1 [Example 378, 1-(4-(4-(3-oxa-8-azabicyclo[3.2.1]octan-8-yl)-6-(isopropylamino)-1,3,5-triazin-2-yl)phenyl)-3-(4-(4-methylpiperazin-1-yl)phenyl)urea]	5.27	–
CC(C)N(C)c1nc(-c2ccc(NC(=O)Nc3ccc(N4CCN(C)CC4)cc3)cc2)nc(N2C3CCC2COC3)n1 [Example 389, 1-(4-(4-(3-oxa-8-azabicyclo[3.2.1]octan-8-yl)-6-(isopropyl(methyl)amino)-1,3,5-triazin-2-yl)phenyl)-3-(4-(4-methylpiperazin-1-yl)phenyl)urea]	5.25	–
CN1CCN(c2ccc(NC(=O)Nc3ccc(-c4nc(N5CCSCC5)nc(N5C6CCC5COC6)n4)cc3)cc2)CC1 [Example 394, 1-(4-(4-(3-oxa-8-azabicyclo[3.2.1]octan-8-yl)-6-thiomorpholino-1,3,5-triazin-2-yl)phenyl)-3-(4-(4-methylpiperazin-1-yl)phenyl)urea]	5.49	–
CN1CCN(c2ccc(NC(=O)Nc3ccc(-c4nc(C5=CCOCC5)nc(N5C6CCC5COC6)n4)cc3)cc2)CC1 [Example 405, 1-(4-(4-(3-oxa-8-azabicyclo[3.2.1]octan-8-yl)-6-(3,6-dihydro-2H-pyran-4-yl)-1,3,5-triazin-2-yl)phenyl)-3-(4-(4-methylpiperazin-1-yl)phenyl)urea]	6.71	–
CN1CCN(c2ccc(NC(=O)Nc3ccc(-c4nc(C5CCOCC5)nc(N5C6CCC5COC6)n4)cc3)cc2)CC1 [Example 407, 1-(4-(4-(3-oxa-8-azabicyclo[3.2.1]octan-8-yl)-6-(tetrahydro-2H-pyran-4-yl)-1,3,5-triazin-2-yl)phenyl)-3-(4-(4-methylpiperazin-1-yl)phenyl)urea]	5.65	–
C[C@@H]1COCCN1c1nc(-c2ccc(NC(=O)Nc3ccc(OCCN(C)C)cc3)cc2)nc(N2C3CCC2COC3)n1 [Example 419, 1-(4-(4-(3-oxa-8-azabicyclo[3.2.1]octan-8-yl)-6-((R)-3-methylmorpholino)-1,3,5-triazin-2-yl)phenyl)-3-(4-(2-(dimethylamino)ethoxy)phenyl)urea]	5.37	–
C[C@@H]1COCCN1c1nc(-c2ccc(NC(=O)Nc3ccc(N4CCN(C)CC4)nc3)cc2)nc(C2CCOCC2)n1 [Example 433, (R)-1-(4-(4-(3-methylmorpholino)-6-(tetrahydro-2H-pyran-4-yl)-1,3,5-triazin-2-yl)phenyl)-3-(6-(4-methylpiperazin-1-yl)pyridin-3-yl)urea]	5.82	pIC50 [1]: 6.66
CCN1CCN(c2ccc(NC(=O)Nc3ccc(-c4nc(C5CCOCC5)nc(N5C6CCC5COC6)n4)cc3)cc2)CC1 [Example 434, 1-(4-(4-(3-oxa-8-azabicyclo[3.2.1]octan-8-yl)-6-(tetrahydro-2H-pyran-4-yl)-1,3,5-triazin-2-yl)phenyl)-3-(4-(4-ethylpiperazin-1-yl)phenyl)urea]	5.32	–
CN(C)C1CCN(c2ccc(NC(=O)Nc3ccc(-c4nc(C5CCOCC5)nc(N5C6CCC5COC6)n4)cc3)cc2)CC1 [Example 437, 1-(4-(4-(3-oxa-8-azabicyclo[3.2.1]octan-8-yl)-6-(tetrahydro-2H-pyran-4-yl)-1,3,5-triazin-2-yl)phenyl)-3-(4-(4-(dimethylamino)piperidin-1-yl)phenyl)urea]	5.79	–
CN1CCN(C(=O)c2ccc(NC(=O)Nc3ccc(-c4nc(C5CCOCC5)nc(N5C6CCC5COC6)n4)cc3)cc2)CC1 [Example 438, 1-(4-(4-(3-oxa-8-azabicyclo[3.2.1]octan-8-yl)-6-(tetrahydro-2H-pyran-4-yl)-1,3,5-triazin-2-yl)phenyl)-3-(4-(4-methylpiperazine-1-carbonyl)phenyl)urea]	6.18	–
CCN1CCN(c2ccc(NC(=O)Nc3ccc(-c4nc(N5C6CCC5COC6)nc(N5CCOC[C@H]5C)n4)cc3)cc2)CC1 [Example 440, 1-(4-(4-(3-oxa-8-azabicyclo[3.2.1]octan-8-yl)-6-((R)-3-methylmorpholino)-1,3,5-triazin-2-yl)phenyl)-3-(4-(4-ethylpiperazin-1-yl)phenyl)urea]	–	pIC50 [2]: < 5.00
CC(C)N1CCN(c2ccc(NC(=O)Nc3ccc(-c4nc(N5C6CCC5COC6)nc(N5CCOC[C@H]5C)n4)cc3)cc2)CC1 [Example 441, 1-(4-(4-(3-oxa-8-azabicyclo[3.2.1]octan-8-yl)-6-((R)-3-methylmorpholino)-1,3,5-triazin-2-yl)phenyl)-3-(4-(4-isopropylpiperazin-1-yl)phenyl)urea]	–	pIC50 [2]: < 5.00
C[C@@H]1COCCN1c1nc(-c2ccc(NC(=O)Nc3ccc(C(=O)N4CCN(C)CC4)cc3)cc2)nc(N2C3CCC2COC3)n1 [Example 444, 1-(4-(4-(3-oxa-8-azabicyclo[3.2.1]octan-8-yl)-6-((R)-3-methylmorpholino)-1,3,5-triazin-2-yl)phenyl)-3-(4-(4-methylpiperazine-1-carbonyl)phenyl)urea]	5.96	–
CC(C)N1CCN(C(=O)c2ccc(NC(=O)Nc3ccc(-c4nc(N5C6CCC5COC6)nc(N5CCOC[C@H]5C)n4)cc3)cc2)CC1 [Example 445, 1-(4-(4-(3-oxa-8-azabicyclo[3.2.1]octan-8-yl)-6-((R)-3-methylmorpholino)-1,3,5-triazin-2-yl)phenyl)-3-(4-(4-isopropylpiperazine-1-carbonyl)phenyl)urea]	6.00	–
CN(C)[C@H]1CCN(C(=O)c2ccc(NC(=O)Nc3ccc(-c4nc(N5CCOCC5)nc(N5C6CCC5COC6)n4)cc3)cc2)C1 [Example 516, 1-(4-{[(3S)-3-(dimethylamino)pyrrolidin-1-yl]carbonyl}phenyl)-3-{4-[4-morpholin-4-yl-6-(3-oxa-8-azabicyclo[3.2.1]oct-8-yl)-1,3,5-triazin-2-yl]phenyl}urea]	7.77	pIC50 [1]: 8.68; pIC50 ([1]; listed as 824): 8.70; pIC50 ([1]; listed as 827): 8.67
Cc1ccc(-c2nc(-c3ccc(NC(=O)Nc4cccc(C(=O)O)c4)cc3)nc(N3CCOCC3)n2)cc1 [Example 577, 3-[({4-[4-(4-methylphenyl)-6-morpholin-4-yl-1,3,5-triazin-2-yl]phenyl}carbamoyl)amino]benzoic acid]	6.98	pIC50 [1]: 7.20
O=C(Nc1ccncc1)Nc1ccc(-c2nc(NS(=O)(=O)c3ccccc3)nc(N3CCOCC3)n2)cc1 [Example 781, N-(4-morpholin-4-yl-6-{4-[(pyridin-4-ylcarbamoyl)amino]phenyl}-1,3,5-triazin-2-yl)benzenesulfonamide]	6.43	pIC50 [1]: 6.87
CC(C)N1CCN(C(=O)c2ccc(NC(=O)Nc3ccc(-c4nc(N5C6CCC5COC6)nc(N5CCOC[C@@H]5C)n4)cc3)cc2)CC1 [Example 830, 1-(4-{4-[(3S)-3-methylmorpholin-4-yl]-6-(3-oxa-8-azabicyclo[3.2.1]oct-8-yl)-1,3,5-triazin-2-yl}phenyl)-3-(4-{[4-(propan-2-yl)piperazin-1-yl]carbonyl}phenyl)urea]	7.15	–
C[C@H]1COCCN1c1nc(-c2ccc(NC(=O)Nc3ccc(C(=O)N4CCN(C)CC4)cc3)cc2)nc(N2C3CCC2COC3)n1 [Example 835, 1-(4-{4-[(3S)-3-methylmorpholin-4-yl]-6-(3-oxa-8-azabicyclo[3.2.1]oct-8-yl)-1,3,5-triazin-2-yl}phenyl)-3-{4-[(4-methylpiperazin-1-yl)carbonyl]phenyl}urea]	7.18	–
C[C@H]1COCCN1c1nc(-c2ccc(NC(=O)Nc3ccc(C(=O)N4CCNCC4)cc3)cc2)nc(N2C3CCC2COC3)n1 [Example 838, 1-(4-{4-[(3S)-3-methylmorpholin-4-yl]-6-(3-oxa-8-azabicyclo[3.2.1]oct-8-yl)-1,3,5-triazin-2-yl}phenyl)-3-[4-(piperazin-1-ylcarbonyl)phenyl]urea]	7.16	pIC50 [1]: 8.40
